Laboratory results from the NIST ThermoML archive (doi:10.1016/j.jct.2012.03.008).
± gives the expanded uncertainty stated by the source.

Conditions: Pendant drop shape

**Q.** Which results are given for `CCCC[n+]1ccn(C)c1.O=S(=O)([N-]S(=O)(=O)C(F)(F)F)C(F)(F)F`?
**A.** surface tension liquid-gas (298.2 K): 33.35 ± 0.38 mN/m; surface tension liquid-gas (308.2 K): 32.85 ± 0.37 mN/m; surface tension liquid-gas (318.2 K): 32.25 ± 0.37 mN/m; surface tension liquid-gas (328.2 K): 31.69 ± 0.36 mN/m; surface tension liquid-gas (338.2 K): 31.14 ± 0.35 mN/m; surface tension liquid-gas (343.2 K): 30.76 ± 0.35 mN/m

**Q.** For `CCCCn1cc[n+](C)c1.F[P-](F)(F)(F)(F)F` [1-butyl-3-methylimidazolium hexafluorophosphate], which surface tension liquid-gas (298.1 K) is on record?
**A.** Its surface tension liquid-gas is 43.81 ± 0.47 mN/m.

**Q.** And the surface tension liquid-gas (303.2 K)?
**A.** Its surface tension liquid-gas is 43.44 ± 0.47 mN/m.

**Q.** What about the surface tension liquid-gas (313.1 K) of the same molecule?
**A.** The surface tension liquid-gas was 42.72 ± 0.46 mN/m.

**Q.** What about the surface tension liquid-gas (323.1 K) of the same molecule?
**A.** The surface tension liquid-gas was 42.19 ± 0.46 mN/m.

**Q.** And the surface tension liquid-gas (333.1 K)?
**A.** The surface tension liquid-gas was 41.61 ± 0.45 mN/m.

**Q.** And the surface tension liquid-gas (343.7 K)?
**A.** The surface tension liquid-gas was 41.07 ± 0.45 mN/m.

**Q.** For `CCCCn1cc[n+](C)c1.F[B-](F)(F)F` [1-butyl-3-methylimidazolium tetrafluoroborate], which surface tension liquid-gas (298 K) is on record?
**A.** Its surface tension liquid-gas is 45.44 ± 0.49 mN/m.

**Q.** And the surface tension liquid-gas (307.9 K)?
**A.** The surface tension liquid-gas was 44.57 ± 0.48 mN/m.

**Q.** What about the surface tension liquid-gas (317.9 K) of the same molecule?
**A.** The surface tension liquid-gas was 43.91 ± 0.47 mN/m.

**Q.** And the surface tension liquid-gas (328.4 K)?
**A.** Its surface tension liquid-gas is 43.15 ± 0.47 mN/m.

**Q.** What about the surface tension liquid-gas (338.4 K) of the same molecule?
**A.** The surface tension liquid-gas was 42.49 ± 0.46 mN/m.

**Q.** And the surface tension liquid-gas (343.1 K)?
**A.** Its surface tension liquid-gas is 42.17 ± 0.46 mN/m.

**Q.** Which surface tension liquid-gas (298.1 K) does the source give for `CCCCn1cc[n+](C)c1.O=S(=O)([O-])C(F)(F)F` [1-butyl-3-methylimidazolium trifluoromethanesulfonate] here?
**A.** The surface tension liquid-gas was 35.86 ± 0.4 mN/m.

**Q.** And the surface tension liquid-gas (307.9 K)?
**A.** Its surface tension liquid-gas is 35.29 ± 0.4 mN/m.

**Q.** What about the surface tension liquid-gas (318 K) of the same molecule?
**A.** The surface tension liquid-gas was 34.95 ± 0.4 mN/m.

**Q.** What about the surface tension liquid-gas (328.1 K) of the same molecule?
**A.** Its surface tension liquid-gas is 34.64 ± 0.41 mN/m.

**Q.** And the surface tension liquid-gas (338.3 K)?
**A.** The surface tension liquid-gas was 34.3 ± 0.38 mN/m.

**Q.** With `CCn1cc[n+](C)c1.Cc1ccc(S(=O)(=O)[O-])cc1` [1-ethyl-3-methylimidazolium 4-methylbenzenesulfonate] as the molecule, how does the surface tension liquid-gas (308.1 K) read?
**A.** The surface tension liquid-gas was 45.2 ± 0.6 mN/m.

**Q.** What about the surface tension liquid-gas (318 K) of the same molecule?
**A.** The surface tension liquid-gas was 44.2 ± 0.6 mN/m.

**Q.** And the surface tension liquid-gas (328.5 K)?
**A.** Its surface tension liquid-gas is 43.6 ± 0.6 mN/m.

**Q.** What about the surface tension liquid-gas (338.3 K) of the same molecule?
**A.** The surface tension liquid-gas was 43 ± 0.6 mN/m.

**Q.** What about the surface tension liquid-gas (343.2 K) of the same molecule?
**A.** Its surface tension liquid-gas is 42.7 ± 0.6 mN/m.

**Q.** With `CC(=O)[O-].CCn1cc[n+](C)c1` [1-ethyl-3-methylimidazolium acetate] as the molecule, how does the surface tension liquid-gas (298.1 K) read?
**A.** The surface tension liquid-gas was 47.06 ± 0.5 mN/m.

**Q.** And the surface tension liquid-gas (308.2 K)?
**A.** The surface tension liquid-gas was 46.53 ± 0.5 mN/m.

**Q.** What about the surface tension liquid-gas (318.2 K) of the same molecule?
**A.** Its surface tension liquid-gas is 45.89 ± 0.49 mN/m.

**Q.** And the surface tension liquid-gas (328.2 K)?
**A.** The surface tension liquid-gas was 45.33 ± 0.48 mN/m.

**Q.** What about the surface tension liquid-gas (338.3 K) of the same molecule?
**A.** Its surface tension liquid-gas is 44.74 ± 0.48 mN/m.

**Q.** Which surface tension liquid-gas (298.3 K) does the source give for `CCn1cc[n+](C)c1.N#CN=C=[N-]` [1-ethyl-3-methylimidazolium dicyanamide] here?
**A.** Its surface tension liquid-gas is 57.5 ± 0.8 mN/m.

**Q.** What about the surface tension liquid-gas (308.2 K) of the same molecule?
**A.** The surface tension liquid-gas was 56.6 ± 1 mN/m.

**Q.** And the surface tension liquid-gas (318.3 K)?
**A.** Its surface tension liquid-gas is 56.4 ± 0.8 mN/m.

**Q.** What about the surface tension liquid-gas (328.2 K) of the same molecule?
**A.** The surface tension liquid-gas was 56 ± 0.7 mN/m.

**Q.** What about the surface tension liquid-gas (338.5 K) of the same molecule?
**A.** Its surface tension liquid-gas is 55 ± 0.8 mN/m.

**Q.** What about the surface tension liquid-gas (343.4 K) of the same molecule?
**A.** The surface tension liquid-gas was 54.9 ± 0.8 mN/m.

**Q.** Which surface tension liquid-gas (308.2 K) does the source give for `CCn1cc[n+](C)c1.COP(=O)([O-])OC` [1-ethyl-3-methylimidazolium dimethylphosphate] here?
**A.** The surface tension liquid-gas was 45.3 ± 0.9 mN/m.

**Q.** What about the surface tension liquid-gas (318 K) of the same molecule?
**A.** The surface tension liquid-gas was 44.7 ± 0.8 mN/m.

**Q.** What about the surface tension liquid-gas (328.7 K) of the same molecule?
**A.** Its surface tension liquid-gas is 44.4 ± 0.7 mN/m.

**Q.** And the surface tension liquid-gas (338.6 K)?
**A.** Its surface tension liquid-gas is 43.8 ± 0.7 mN/m.

**Q.** And the surface tension liquid-gas (343.5 K)?
**A.** The surface tension liquid-gas was 43.3 ± 0.6 mN/m.

**Q.** Which results are given for `CCn1cc[n+](C)c1.CS(=O)(=O)[O-]` [1-ethyl-3-methylimidazolium methanesulfonate]?
**A.** surface tension liquid-gas (298.5 K): 50.9 ± 0.8 mN/m; surface tension liquid-gas (308 K): 50.3 ± 0.8 mN/m; surface tension liquid-gas (317.9 K): 49.7 ± 0.8 mN/m; surface tension liquid-gas (328.1 K): 49.1 ± 0.8 mN/m; surface tension liquid-gas (338.1 K): 48.1 ± 0.6 mN/m; surface tension liquid-gas (342.7 K): 47.7 ± 0.6 mN/m

**Q.** For `CCn1cc[n+](C)c1.CO[PH](=O)[O-]` [1-ethyl-3-methylimidazolium methyl phosphonate], which surface tension liquid-gas (298.2 K) is on record?
**A.** Its surface tension liquid-gas is 49 ± 0.6 mN/m.

**Q.** And the surface tension liquid-gas (308.4 K)?
**A.** The surface tension liquid-gas was 48.3 ± 0.6 mN/m.

**Q.** What about the surface tension liquid-gas (318 K) of the same molecule?
**A.** The surface tension liquid-gas was 47.9 ± 0.8 mN/m.

**Q.** What about the surface tension liquid-gas (328.6 K) of the same molecule?
**A.** Its surface tension liquid-gas is 47.2 ± 0.6 mN/m.

**Q.** What about the surface tension liquid-gas (338.5 K) of the same molecule?
**A.** Its surface tension liquid-gas is 46.7 ± 0.6 mN/m.

**Q.** And the surface tension liquid-gas (343.1 K)?
**A.** The surface tension liquid-gas was 46.3 ± 0.5 mN/m.

**Q.** Which surface tension liquid-gas (298.2 K) does the source give for `CCn1cc[n+](C)c1.N#C[S-]` [1-ethyl-3-methylimidazolium thiocyanate] here?
**A.** Its surface tension liquid-gas is 53.3 ± 1 mN/m.

**Q.** What about the surface tension liquid-gas (308.2 K) of the same molecule?
**A.** The surface tension liquid-gas was 52.3 ± 1 mN/m.

**Q.** What about the surface tension liquid-gas (318.2 K) of the same molecule?
**A.** The surface tension liquid-gas was 51.8 ± 0.9 mN/m.

**Q.** And the surface tension liquid-gas (328.2 K)?
**A.** The surface tension liquid-gas was 50.5 ± 0.8 mN/m.

**Q.** And the surface tension liquid-gas (338.3 K)?
**A.** The surface tension liquid-gas was 49.8 ± 1.1 mN/m.

**Q.** And the surface tension liquid-gas (343.2 K)?
**A.** Its surface tension liquid-gas is 49.4 ± 0.8 mN/m.

**Q.** For `CCn1cc[n+](C)c1.O=S(=O)([O-])C(F)(F)F` [1-ethyl-3-methylimidazolium trifluoromethanesulfonate], which surface tension liquid-gas (298.2 K) is on record?
**A.** The surface tension liquid-gas was 41.3 ± 0.5 mN/m.

**Q.** What about the surface tension liquid-gas (308.1 K) of the same molecule?
**A.** Its surface tension liquid-gas is 41 ± 0.45 mN/m.

**Q.** And the surface tension liquid-gas (318.1 K)?
**A.** Its surface tension liquid-gas is 40.48 ± 0.44 mN/m.

**Q.** And the surface tension liquid-gas (328.4 K)?
**A.** The surface tension liquid-gas was 39.9 ± 0.7 mN/m.

**Q.** What about the surface tension liquid-gas (338.3 K) of the same molecule?
**A.** Its surface tension liquid-gas is 39.5 ± 0.7 mN/m.

**Q.** What about the surface tension liquid-gas (344.9 K) of the same molecule?
**A.** Its surface tension liquid-gas is 39.3 ± 0.43 mN/m.
